This is an account of results in patent publication US7842808B2, “Anti-migraine spirocycles” (Bristol-Myers Squibb Company, priority 2002, dated 2010).

Assay [1] concerns the target T1, CGRP receptor (SK-N-MC cell membranes) (Homo sapiens, UniProt O60894+Q16602).
T1 construct: endogenous in cells; host or cells: SK-N-MC cells (membrane homogenate)
The assay is described as follows: CGRP Binding Assay ([125I]-CGRP radioligand binding, SK-N-MC homogenate).

Assay [2] addresses T2, human CGRP receptor (SK-N-MC cells) (Homo sapiens, UniProt O60894+Q16602).
T2 construct: SK-N-MC cells that endogenously express the human CGRP receptor; endogenous in cells; host or cells: SK-N-MC cells
In words: Cyclic AMP Assay, functional antagonism of CGRP-induced cyclic AMP formation. In kind it is cell-based. As for the experimental part:
Functional Antagonism. Antagonism of the compounds of invention was determined by measuring the formation of cyclic AMP (adenosine 3′5′-cyclic monophosphate) in SK-N-MC cells that endogenously express the human CGRP receptor. […] For cyclic AMP measurements SK-N-MC cells were incubated with 0.3 nM CGRP alone or in the presence of various concentrations of the compounds of invention for 30 min at room temperature. […] Cyclic AMP was extracted using the lysis reagent and its concentration was determined by radioimmunoassay using RPA559 cAMP SPA Direct Screening Assay Kit (Amersham Pharmacia Biotech). IC50 values were calculated using Excel fit.

Where [3] appears, read: displacement of [125I]-CGRP, SK-N-MC homogenate, read-out: CGRP binding IC50.
Setting [4] is: SK-N-MC cells, 0.3 nM CGRP, read-out: cAMP Function IC50.

Read-outs that look alike come from different tables or passages of the source.

T1 sequence (Q16602 23-461): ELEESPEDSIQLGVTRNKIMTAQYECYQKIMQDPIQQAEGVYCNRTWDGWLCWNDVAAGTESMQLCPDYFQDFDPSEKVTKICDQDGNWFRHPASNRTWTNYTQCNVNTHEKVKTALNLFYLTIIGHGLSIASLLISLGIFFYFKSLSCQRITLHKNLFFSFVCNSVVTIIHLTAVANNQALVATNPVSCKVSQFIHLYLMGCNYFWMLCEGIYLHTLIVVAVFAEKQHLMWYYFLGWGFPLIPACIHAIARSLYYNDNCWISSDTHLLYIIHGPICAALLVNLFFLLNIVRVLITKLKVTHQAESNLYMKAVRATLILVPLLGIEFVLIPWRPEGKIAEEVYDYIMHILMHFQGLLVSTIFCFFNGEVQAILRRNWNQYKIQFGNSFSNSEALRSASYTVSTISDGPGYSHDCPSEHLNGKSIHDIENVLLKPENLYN
T1 sequence (O60894 27-148): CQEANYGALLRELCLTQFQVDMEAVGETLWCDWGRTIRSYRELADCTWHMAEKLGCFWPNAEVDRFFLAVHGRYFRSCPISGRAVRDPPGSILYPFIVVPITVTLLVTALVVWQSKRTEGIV
T2 sequence (Q16602 23-461): as the sequence (Q16602 23-461) above
T2 sequence (O60894 27-148): as the sequence (O60894 27-148) above

The IC50 is the midpoint of a concentration-inhibition curve. Consider `Cc1cc(CC(NC(=O)N2CCC3(CC2)NC(=O)Nc2ccccc23)C(=O)N2CCCCC2)cc2cn[nH]c12` (racemic) [Example 24, (±)-1-(7-Methyl-1H-indazol-5-ylmethyl)-2-(1-piperidinyl)-2-oxoethyl]-2′,3′-dihydro-2′-oxospiro-[piperidine-4,4′-(1H)-quinazoline]-1-carboxamide], for which the IC50 in assay [1] (setting [3]) and in assay [2] (setting [4]) was 10 to 100 nM in each case.

Regarding `O=C1NCC2(CCN(C(=O)N[C@H](Cc3csc4ccccc34)C(=O)N3CCC(N4CCCCC4)CC3)CC2)c2ccccc21` [Example 63, N-[(1R)-1-(Benzo[b]thien-3-ylmethyl)-2-[1,4-bipiperidin]-1-yl-2-oxoethyl]-2′,3′-dihydro-1-oxospiro-[piperidine-4,4′(1H)-isoquinoline]-1-carboxamide], the concentration for half-maximal inhibition (IC50) in assay [1] (setting [3]) and in assay [2] (setting [4]) was 100 to 1000 nM in each case.

Take `Cc1cc(CC(CC(=O)N2CCC(N3Cc4ccccc4NC3=O)CC2)C(=O)N2CC(C)OC(C)C2)cc2cn[nH]c12` (racemic) [Example 73, (±)-1-(2,6-Dimethyl-morpholin-4-yl)-2-(7-methyl-1H-indazol-5-ylmethyl)-4-[4-(2-oxo-1,4-dihydro-2H-quinazolin-3-yl)-piperidin-1-yl]-butane-1,4-dione]: the IC50 in assay [1] (setting [3]) and in assay [2] (setting [4]) was 10 to 100 nM each time.

Turning to `O=C(NC(Cc1ccc2[nH]ncc2c1)C(=O)N1CCC2(CC1)OCCO2)N1CCC(n2c(=O)[nH]c3ccccc32)CC1` (racemic) [Example 10, (±)-4-(2-Oxo-2,3-dihydro-benzoimidazol-1-yl)-piperidine-1-carboxylic acid[2-(1,4-dioxa-8-aza-spiro[4.5]dec-8-yl)-1-(1H-indazol-5-ylmethyl)-2-oxo-ethyl]-amide], the IC50 lay in the range of 100 to 1000 nM in assay [1] and 10 to 100 nM in assay [2].

On to `Cc1cc(CC(CC(=O)N2CCC(N3Cc4ccccc4NC3=O)CC2)C(=O)N2CCOCC2)cc2cn[nH]c12` (racemic) [Example 75, (±)-2-(7-Methyl-1H-indazol-5-ylmethyl)-1-morpholin-4-yl-4-[4-(2-oxo-1,4-dihydro-2H-quinazolin-3-yl)-piperidin-1-yl]-butane-1,4-dione], for which the IC50 in assay [1] (setting [3]) was < 10 nM; in assay [2] (setting [4]), 10 to 100 nM.

For the compound `O=C(NC(Cc1ccc2[nH]ncc2c1)C(=O)N1CCC2(CC1)OCCO2)N1CCC(N2Cc3ccccc3NC2=O)CC1` (racemic) [Example 11, (±)-4-(2-Oxo-1,4-dihydro-2H-quinazolin-3-yl)-piperidine-1-carboxylic acid[2-(1,4-dioxa-8-aza-spiro[4.5]dec-8-yl)-1-(1H-indazol-5-ylmethyl)-2-oxo-ethyl]-amide], the IC50 in assay [1] (setting [3]) and in assay [2] was 10 to 100 nM throughout.

Regarding `Cc1cc(CC(NC(=O)N2CCC3(CC2)N=C(c2ccccc2)NC3=O)C(=O)N2CCCCC2)cc2cn[nH]c12` (racemic) [Example 35, (±)-4-Oxo-2-phenyl-1,3,8-triaza-spiro[4,5]dec-1-ene-8-carboxylic acid {1-(7-methyl-1H-indazol-5-yl methyl)-2-[1-piperidinylyl]-2-oxo-ethyl}-amide], the IC50 in assay [1] (setting [3]) and in assay [2] (setting [4]) was 10 to 100 nM each time.

Turning to `C#CCNC(=O)C(CC(=O)N1CCC(N2Cc3ccccc3NC2=O)CC1)Cc1cc(C)c2[nH]ncc2c1` (racemic) [Example 84, (±)-2-(7-Methyl-1H-indazol-5-ylmethyl)-4-oxo-4-[4-(2-oxo-1,4-dihydro-2H-quinazolin-3-yl)-piperidin-1-yl]-N-prop-2-ynyl-butyramide], the IC50 in assay [1] (setting [3]) and in assay [2] (setting [4]) was 10 to 100 nM in each case.

On to `O=C(NC(Cc1ccc2[nH]ncc2c1)C(=O)N1CCN(C(=O)OCc2ccccc2)CC1)N1CCC(N2Cc3ccccc3NC2=O)CC1` (stereo not drawn) [Example 38, 4-(3-(1H-Indazol-5-yl)-2-{[4-(2-oxo-1,4-dihydro-2H-quinazolin-3-yl)-piperidine-1-carbonyl]-amino}-propionyl)-piperazine-1-carboxylic acid benzyl ester], for which the IC50 in assay [1] (setting [3]) and in assay [2] (setting [4]) was 10 to 100 nM in each case.

`O=C(NC(Cc1ccc2[nH]ncc2c1)C(=O)N1CCC(N2CCCCC2)CC1)N1CCC(n2c(=O)[nH]c3ccccc32)CC1` (racemic) [Example 4, (±)-4-(2-Oxo-2,3-dihydro-benzoimidazol-1-yl)-piperidine-1-carboxylic acid[2-[1,4′]bipiperidinyl-1′-yl-1-(1H-indazol-5-ylmethyl)-2-oxo-ethyl]-amide]: the IC50 in assay [1] (setting [3]) and in assay [2] (setting [4]) was 10 to 100 nM throughout.

`O=C(NC(Cc1ccc2[nH]ncc2c1)C(=O)N1CCC(N2Cc3ccccc3NC2=O)CC1)N1CCC(N2Cc3ccccc3NC2=O)CC1` (stereo not drawn) [Example 37, 4-(2-Oxo-1,4-dihydro-2H-quinazolin-3-yl)-piperidine-1-carboxylic acid{1-(1H-indazol-5-ylmethyl)-2-oxo-2-[4-(2-oxo-1,4-dihydro-2H-quinazolin-3-yl)-piperidin-1-yl]-ethyl}-amide]: the IC50 in assay [1] (setting [3]) was < 10 nM; in assay [2] (setting [4]) it was 10 to 100 nM.

In the case of `Cc1cc(CC(NC(=O)N2CCC3(CC2)OC(=O)Nc2ccccc23)C(=O)N(C)C)cc2cn[nH]c12` (racemic) [Example 27, (±)-[1-Dimethylcarbamoyl-2-(7-methyl-1H-indazol-5-yl)-ethyl]-1′,2′-dihydro-2′-oxospiro-[4H-3′,1-benzoxazine-4,4′-piperidine]-1-carboxamide], the IC50 in assay [1] (setting [3]) lay in the range of 10 to 100 nM; in assay [2] (setting [4]) it was 100 to 1000 nM.

`O=C(NC(Cc1ccc2[nH]ncc2c1)C(=O)N1CCNCC1)N1CCC(N2Cc3ccccc3NC2=O)CC1` (stereo not drawn) [Example 39, 4-(2-Oxo-1,4-dihydro-2H-quinazolin-3-yl)-piperidine-1-carboxylic acid[1-(1H-indazol-5-ylmethyl)-2-oxo-2-piperazin-1-yl-ethyl]-amide]: the half-maximal inhibitory concentration (IC50) in assay [1] (setting [3]) and in assay [2] (setting [4]) was 100 to 1000 nM in each case.

Consider `O=C1CC2(CCN(C(=O)N[C@H](Cc3csc4ccccc34)C(=O)N3CCC(N4CCCCC4)CC3)CC2)c2ccccc2N1` [Example 62, N-[(1R)-1-(Benzo[b]thien-3-ylmethyl)-2-[1,4-bipiperidin]-1-yl-2-oxoethyl]-3′,4′-dihydro-2-oxospiro-[piperidine-4,4′(1H)-quinoline]-1-carboxamide], for which the IC50 in assay [1] (setting [3]) and in assay [2] (setting [4]) was 10 to 100 nM each time.

On to `Cc1cc(CC(NC(=O)N2CCC3(CC2)N=C(c2ccccc2)NC3=O)C(=O)N2CCC(N3CCCCC3)CC2)cc2cn[nH]c12` (racemic) [Example 34, (±)-4-Oxo-2-phenyl-1,3,8-triaza-spiro[4,5]dec-1-ene-8-carboxylic acid {1-(7-methyl-1H-indazol-5-yl methyl)-2-[1,4]bipiperidinyl-1′-yl-2-oxo-ethyl}-amide], for which the IC50 in assay [1] (setting [3]) and in assay [2] (setting [4]) was < 10 nM throughout.

As to `Cc1cc(CC(NC(=O)N2CCC3(CC2)N=C(c2ccccc2)NC3=O)C(=O)N(C)C)cc2cn[nH]c12` (racemic) [Example 36, (±)-4-Oxo-2-phenyl-1,3,8-triaza-spiro[4,5]dec-1-ene-8-carboxylic acid[1-dimethylcarbamoyl-2-(7-methyl-1H-indazol-5-yl)-ethyl]amide], the IC50 in assay [1] (setting [3]) and in assay [2] (setting [4]) was 10 to 100 nM in each case.

Take `COC(=O)C(Cc1cc(C)c2[nH]ncc2c1)NC(=O)N1CCC(N2Cc3ccccc3NC2=O)CC1` (racemic) [Example 12, (±)-3-(7-Methyl-1H-indazol-5-yl)-2-{[4-(2-oxo-1,4-dihydro-2H-quinazolin-3-yl)-piperidine-1-carbonyl]-amino}-propionic acid methyl ester]: the IC50 in assay [1] (setting [3]) was in the range of 10 to 100 nM; in assay [2] (setting [4]) it was 100 to 1000 nM.

In the case of `Cc1nc(N[C@@H](CC(=O)N2CCC(N3Cc4ccccc4NC3=O)CC2)C(=O)N2CCC(N3CCCCC3)CC2)nc2nn[nH]c12` [Example 92, (L)-1-[1,4′]Bipiperidinyl-1′-yl-2-(7-methyl-1H-[1,2,3]triazolo[4,5-d]pyrimidin-5-ylamino)-4-[4-(2-oxo-1,4-dihydro-2H-quinazolin-3-yl)-piperidin-1-yl]-butane-1,4-dione], the IC50 in assay [1] (setting [3]) lay within 10 to 100 nM; in assay [2] (setting [4]) it was 100 to 1000 nM.

For `CC1(C)CN(CC(NC(=O)N2CCC(N3Cc4ccccc4NC3=O)CC2)C(=O)N2CCC(N3CCCCC3)CC2)Cc2cn[nH]c21` (racemic) [Example 56, (±)-4-(2-Oxo-1,4-dihydro-2H-quinazolin-3-yl)-piperidine-1-carboxylic acid[2-[1,4′]bipiperidinyl-1′-yl-1-(7,7-dimethyl-1,4,6,7-tetrahydro-pyrazolo[4,3-c]pyridin-5-ylmethyl)-2-oxo-ethyl]-amide], the IC50 in assay [1] (setting [3]) and in assay [2] (setting [4]) was < 10 nM each time.

As to `O=C(C[C@H](Nc1cc(Cl)ccc1[N+](=O)[O-])C(=O)N1CCC(N2CCCCC2)CC1)N1CCC(N2Cc3ccccc3NC2=O)CC1` [Example 87, (L)-1-[1,4′]Bipiperidinyl-1′-yl-2-(5-chloro-2-nitro-phenylamino)-4-[4-(2-oxo-1,4-dihydro-2H-quinazolin-3-yl)-piperidin-1-yl]-butane-1,4-dione], the IC50 in assay [1] (setting [3]) and in assay [2] (setting [4]) was 10 to 100 nM throughout.

With `O=C(C[C@H](Nc1nc(Cl)nc2[nH]cnc12)C(=O)N1CCC(N2CCCCC2)CC1)N1CCC(N2Cc3ccccc3NC2=O)CC1` [Example 89, (L)-1-[1,4′]Bipiperidinyl-1′-yl-2-(2-chloro-9H-purin-6-ylamino)-4-[4-(2-oxo-1,4-dihydro-2H-quinazolin-3-yl)-piperidin-1-yl]-butane-1,4-dione], the figures for the concentration for half-maximal inhibition (IC50) in assay [1] (setting [3]) and in assay [2] (setting [4]) were 100 to 1000 nM and 10 to 100 nM, respectively.
